Each compound was assayed against T1, ACE (Rattus norvegicus, UniProt P47820) (assay: ACE inhibition activity using rat lung (Experiment C-2)). Details: Table C-1; rat lung membrane fraction, borate buffer pH 8.3.
T1 construct: membrane fraction prepared from rat lung; from tissue; host or cells: rat lung, membrane fraction (method of Wu-Wong et al.)
T1 sequence (P47820 36-1313): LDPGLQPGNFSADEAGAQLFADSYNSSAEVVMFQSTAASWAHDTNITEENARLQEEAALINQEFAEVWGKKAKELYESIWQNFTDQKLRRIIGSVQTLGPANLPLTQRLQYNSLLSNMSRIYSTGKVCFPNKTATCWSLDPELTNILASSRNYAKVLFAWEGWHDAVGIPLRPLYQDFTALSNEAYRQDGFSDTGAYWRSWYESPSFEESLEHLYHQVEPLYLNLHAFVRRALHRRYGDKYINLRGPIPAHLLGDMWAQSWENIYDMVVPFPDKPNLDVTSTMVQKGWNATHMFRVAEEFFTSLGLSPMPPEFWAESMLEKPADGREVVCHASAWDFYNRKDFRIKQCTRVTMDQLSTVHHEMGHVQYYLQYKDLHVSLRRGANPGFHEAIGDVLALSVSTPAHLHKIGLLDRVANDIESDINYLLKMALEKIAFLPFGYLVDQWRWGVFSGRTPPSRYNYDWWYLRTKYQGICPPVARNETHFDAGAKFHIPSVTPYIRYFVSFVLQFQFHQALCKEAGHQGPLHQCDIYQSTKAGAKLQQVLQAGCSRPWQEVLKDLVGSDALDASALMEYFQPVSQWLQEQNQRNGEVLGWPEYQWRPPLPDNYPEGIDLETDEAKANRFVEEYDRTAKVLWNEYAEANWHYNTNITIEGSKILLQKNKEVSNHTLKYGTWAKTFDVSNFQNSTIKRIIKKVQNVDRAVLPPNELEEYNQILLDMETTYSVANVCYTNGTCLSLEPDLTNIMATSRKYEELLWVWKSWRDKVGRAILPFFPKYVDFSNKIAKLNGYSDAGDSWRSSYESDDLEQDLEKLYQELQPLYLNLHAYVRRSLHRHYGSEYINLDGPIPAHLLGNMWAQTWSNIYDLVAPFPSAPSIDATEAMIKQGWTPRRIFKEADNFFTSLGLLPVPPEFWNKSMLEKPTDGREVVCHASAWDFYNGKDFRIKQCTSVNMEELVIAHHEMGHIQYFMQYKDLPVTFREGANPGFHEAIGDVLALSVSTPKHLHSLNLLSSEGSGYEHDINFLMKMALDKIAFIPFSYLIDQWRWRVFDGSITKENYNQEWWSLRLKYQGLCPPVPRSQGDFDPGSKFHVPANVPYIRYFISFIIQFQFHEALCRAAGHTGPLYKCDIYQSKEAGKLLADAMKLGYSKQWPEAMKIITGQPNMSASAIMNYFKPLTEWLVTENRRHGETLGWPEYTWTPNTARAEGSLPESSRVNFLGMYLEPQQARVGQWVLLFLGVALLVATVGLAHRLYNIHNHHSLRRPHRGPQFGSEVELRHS
Type: biochemical
Description: The ACE inhibition activity was determined by using a membrane fraction prepared from rat lung in accordance with the method of Wu-Wong et al. (Characterization of Endthelin Converting Enzyme in Rat Lung., Junshyum R. Wu-Wong, Gerald P. Budzik, Edward M. Devine and Terry J. Opgenorth, Biochem. Biophys. Res. Commun., 1990, 171, 1291-1296.).
The ACE activity was determined with the use of a modification (modified to a borate buffer, pH 8.3) of the method of Cushman and Cheung (Spectrophotometric Assay and Properties of the Angiotensin-Converting Enzyme of Rabbit Lung., Cushman D. W. and Cheung H. S., 1971, 20, 1637-1648.).
In the presence of ACE, the hippurate liberated from hippuryl-histidyl-leucine (Hippuryl-His-Leu (PeptideInstitute Inc., Japan)) was extracted with ethyl acetate and then the absorbance was measured at a wavelength of 228 nm.
With respect to the ACE inhibition activity, the test compound was added to the reaction system as described above in such a manner as to give the final concentrations of 1, 3, 10, 30, 100, 300 and 1000 nM, an inhibition curve was prepared, and then the concentration at which 50% inhibition was achieved was taken as IC50. As a comparative compound, [4S-[4α,7α(R*),12bβ]]-7-[(1-oxo-2-(S)-thio-3-phenyl-propyl)amino]-1,2,3,4,6,7,8,12b-octahydro-6-oxopyrido-[2,1-a][2]benzazepine-4-carboxylic acid was used.

| Structure (SMILES) | IC50 |
| --- | --- |
| O=C(N[C@H]1Cc2ccccc2[C@H]2CCC[C@@H](C(=O)O)N2C1=O)[C@@H](S)Cc1ccccc1 [Comp. cpd. E-1, [4S-[4α,7α(R*),12bβ]]-7-[(1-oxo-2-(S)-thio-3-phenyl-propyl)amino]-1,2,3,4,6,7,8,12b-octahydro-6-oxopyrido-[2,1-a][2]benzazepine-4-carboxylic acid, reference compound] | 9 nM |
| CC[C@H](C)[C@H](S)C(=O)NC1CCc2ccccc2N(CC(=O)O)C1=O (stereo partly drawn) [Example A-9, 1-Carboxymethyl-3-[(2S,3S)-2-mercapto-3-methylvarelylamino]-1H-[1]benzazepin-2-one] | 13 nM |
| CC[C@H](C)[C@H](S)C(=O)N[C@H]1CCc2ccccc2N(CC(=O)O)C1=O [Example A-11, (S)-3-[(2S,3S)-2-Mercapto-3-methylvarelylamino]-1-carboxymethyl-2,3,4,5-tetrahydro-1H-[1]benzazepin-2-one] | 11 nM |
| CC[C@H](C)[C@H](S)C(=O)N[C@H]1CCC[C@H]2SC[C@@H](C(=O)O)N2C1=O [Example C-8, [3R-[3α,6α,(S*),9aβ]]-6-[[(2S,3S)-3-methyl-1-oxo-2-thiopentyl]amino]-octahydro-5-oxothiazol[3,2-a]-azepine-3-carboxylic acid] | 5.3 nM |
| CC[C@H](C)[C@H](S)C(=O)N[C@H]1Cc2ccc(-c3ccccc3)cc2[C@H]2CCC[C@@H](C(=O)O)N2C1=O [Example C-14, [4S-[4α,7α(R*),12bβ]]-7-[[(2S,3S)-3-Methyl-1-oxo-2-thiopentyl]amino]-6-oxo-11-phenyl-1,2,3,4,6,7,8,12b-octahydropyrido[2,1-a][2]benzazepine-4-carboxylic acid] | 12.3 nM |

— US5679671A, “Amino acid derivative” (Eisai Co., Ltd., priority 1993, dated 1997)
